Experimental data taken from US20090281054A1, “COMPOSITIONS AND METHODS COMPRISING CAPURAMYCIN ANALOGUES” (priority 2008, published 2009).
Converted amounts (≈) assume the structure as drawn. Like-named read-outs stand apart in the source and are kept apart here.

Key:
translocase I = translocase I (Escherichia coli, UniProt P0A6W3); assay: IC50 against translocase I; format: biochemical
[1] = test system: Mycobacterium tuberculosis (MTB); assay: MIC by BACTEC radiometric method; format: cell-based
Experimental: Determination of MIC. MIC of drugs for laboratory and clinical strains of Mycobacterium tuberculosis (MTB) was determined by BACTEC radiometric method as described by Heifets (1991), “Antituberculosis Drugs: Antimicrobial Activity in vitro, Drug Susceptibility in the Chemotherapy of Microbacterial Infections, Boca Raton, Fla., CRC Press and Luna-Herrera et al., Antimicrob. Agents and Chemother. 1995, 39(2), 440-444. […] The minimal inhibitory concentration (MIC) was defined as the lowest concentrations of drug that caused GI equal to or less than that of the 1/100 dilution growth control. Capuramycin analogues SQ641, SQ922 and SQ997 were tested at concentrations ranging from […].

[2] = test system: M. smegmatis (MSMG; MC2155); assay: MIC by microdilution method in 7H9 broth; format: cell-based; conditions: MSMG MC^2155, 72 hr
[3] = test system: M. kansaii (MKN; ATCC12478 & 35775); assay: MIC by microdilution method in 7H9 broth; format: cell-based, M. kansasii; conditions: Mycobacterium kansasii, read-out: MIC
MSMG and MTB (H37Rv) = assay: Minimum bactericidal concentration (MBC), MBC/MIC ratio; format: cell-based, Mycobacterium tuberculosis; M. smegmatis
M. abscessus = assay: Synergy by checkerboard titration (microdilution); format: cell-based
M. smegmatis = assay: Synergy by checkerboard titration (microdilution); format: cell-based
MTB [4] = assay: Synergy by checkerboard titration (microdilution); format: cell-based, Mycobacterium tuberculosis
Experimental: Synergistic activity with other anti-TB drugs against MSMG, MTB, MAB, and MAC. Synergy with other anti-mycobacterial drugs was determined in two drug combinations by checkerboard titration using a microdilution method. Fractional inhibitory concentration (FIC) is the MIC in combination divided by the MIC of individual drug. An FIC index (ΣFIC) of ≦0.5 indicates synergistic activity, ≧4.0 antagonistic activity and in between, additive effect. Synergistic activity was determined against MSMG, MTB, MAB and MAC. All the three CM analogues were tested in combination with INH, RIF, EMB and SM against MSMG. Similarly, all the three CM analogues were tested in combination with INH, EMB, SM and SQ109 against MTB. Only SQ641 was tested in combination with EMB, clarithromycin (CLA) and amikacin (AMK) against MAC.

MTB inside macrophages = assay: Intracellular activity of DMSO-solubilized drug in MTB infected macrophages; format: cell-based, Mycobacterium tuberculosis; conditions: for Mean RLU at Day 7: Day 0 RLU 443, Control Day 7 4251
MTB in J774A.1 cells = assay: Intracellular activity of SQ641 with efflux pump blockers; format: cell-based, Mycobacterium tuberculosis; conditions: 4 days exposure
MTB in macrophages = format: cell-based, Mycobacterium tuberculosis
MTB [5] = assay: In vivo efficacy in mouse model of chronic TB disease (lung CFU); conditions: mice treated for 3 wk, starting 3 wk after infection, gav, ip, iv
Experimental: In vivo activity against MTB. In vivo efficacy of CM analogues was investigated in a mouse model of chronic TB disease (FIG. 2). Three wk after infection, mice were treated for 3 wk with the drugs by gavage (gav), intraperitoneal injection (ip), intravenous injection (iv), or intranasal (in) routes. Efficacy was analyzed by determining Colony-Forming Units (CFU) in lungs. […] Each achieved a decrease of 1-log10 lung CFU compared to the late control [LC] CFU by at least one route, which varied for each drug.

[6] = test system: Mycobacteria (all mycobacterial species tested); assay: In vitro MIC and MBC across mycobacterial species; format: cell-based; conditions: NTM tested (Table 5)

translocase I, sequence (P0A6W3 whole entry): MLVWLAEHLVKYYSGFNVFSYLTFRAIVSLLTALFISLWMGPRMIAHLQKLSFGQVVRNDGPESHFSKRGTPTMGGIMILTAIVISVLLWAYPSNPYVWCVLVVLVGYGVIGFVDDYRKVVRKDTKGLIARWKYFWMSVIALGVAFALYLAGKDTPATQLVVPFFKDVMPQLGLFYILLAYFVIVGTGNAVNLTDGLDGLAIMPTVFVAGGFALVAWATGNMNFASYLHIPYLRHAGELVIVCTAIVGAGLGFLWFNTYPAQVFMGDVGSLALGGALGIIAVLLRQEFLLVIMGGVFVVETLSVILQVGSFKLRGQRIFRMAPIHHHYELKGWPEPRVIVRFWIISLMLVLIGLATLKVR

## CCCCCCCCCC(=O)O[C@@H]1[C@H](OC)[C@@H]([C@@H](O[C@H]2OC(C(=O)N[C@H]3CCC[C@@H](C)NC3=O)=C[C@H](O)[C@@H]2O)C(N)=O)O[C@H]1n1ccc(=O)[nH]c1=O [SQ641]
Translocase I
  IC50 against translocase I: 0.55 µg/mL (≈ 0.745 µM)
[1]; H37RV, MTB strain H37Rv
  MIC: 1 µg/mL (≈ 1.36 µM)
[1]; MTB
  MIC90: 4 µg/mL (≈ 5.42 µM)
[1]; MTB strain 16
  MIC: 4 µg/mL (≈ 5.42 µM)
[1]; MTB strain 113
  MIC: 1 µg/mL (≈ 1.36 µM)
[1]; MTB strain 158
  MIC: 4 µg/mL (≈ 5.42 µM)
[1]; MTB strain 606
  MIC: 4 µg/mL (≈ 5.42 µM)
[1]; MTB strain 847
  MIC: 4 µg/mL (≈ 5.42 µM)
[1]; MTB strain 1351
  MIC: 1 µg/mL (≈ 1.36 µM)
[1]; MTB strain 1407
  MIC: 2 µg/mL (≈ 2.71 µM)
[1]; MTB strain 1498
  MIC: 4 µg/mL (≈ 5.42 µM)
[1]; MTB strain 1665
  MIC: 2 µg/mL (≈ 2.71 µM)
[1]; MTB strain 1703
  MIC: 4 µg/mL (≈ 5.42 µM)
[1]; MTB strain 1760
  MIC: 8 µg/mL (≈ 10.8 µM)
[1]; MTB strain 1782
  MIC: 2 µg/mL (≈ 2.71 µM)
[1]; MTB strain 1901
  MIC: 4 µg/mL (≈ 5.42 µM)
[1]; MTB strain 1921
  MIC: 4 µg/mL (≈ 5.42 µM)
[1]; MTB strain 2224
  MIC: 4 µg/mL (≈ 5.42 µM)
[1]; MTB strain 2554
  MIC: 4 µg/mL (≈ 5.42 µM)
[1]; MTB strain 2693
  MIC: 8 µg/mL (≈ 10.8 µM)
[1]; MTB strain 8266
  MIC: 2 µg/mL (≈ 2.71 µM)
[1]; MTB strain 8642
  MIC: 4 µg/mL (≈ 5.42 µM)
[2]
  MIC: 2 µg/mL (≈ 2.71 µM)
[2]; Mycolicibacterium smegmatis, MC2155|MC^2155, read-out: MIC
  MIC: 2 µg/mL (≈ 2.71 µM)
[3]; ATCC 12478 / ATCC 35775, MKN ATCC35775
  MIC: 0.25 µg/mL (≈ 0.339 µM)
[3]; MKN ATCC12478
  MIC: 1 µg/mL (≈ 1.36 µM)
MSMG and MTB (H37Rv)
  MBC/MIC ratio: 1
M. abscessus; Mycobacteroides abscessus, drug alone
  MIC: 0.5 µg/mL
M. abscessus; SQ641 + RFB
  ΣFIC: 0.25
M. abscessus; SQ641 + SM
  ΣFIC: 0.375
M. abscessus; combination SQ641 + RFB
  MIC Combination: 0.062 µg/mL
M. abscessus; combination SQ641 + SM
  MIC Combination: 0.062 µg/mL
M. smegmatis; M. smegmatis, SQ641 + EMB
  ΣFIC: 0.375
M. smegmatis; M. smegmatis, SQ641 + INH
  ΣFIC: 0.25
M. smegmatis; M. smegmatis, SQ641 + RIF
  ΣFIC: 0.75
M. smegmatis; M. smegmatis, SQ641 + SM
  ΣFIC: 1.0
M. smegmatis; M. smegmatis, combination SQ641 + EMB
  MIC Combination: 0.25 µg/mL
M. smegmatis; M. smegmatis, combination SQ641 + INH
  MIC Combination: 0.25 µg/mL
M. smegmatis; M. smegmatis, combination SQ641 + RIF
  MIC Combination: 1.0 µg/mL
M. smegmatis; M. smegmatis, combination SQ641 + SM
  MIC Combination: 1.0 µg/mL
M. smegmatis; MSMG
  Synergy with other anti-mycobacterial drugs: synergy in combination with INH and EMB in MSMG
M. smegmatis; Mycolicibacterium smegmatis, M. smegmatis, drug alone
  MIC: 2 µg/mL
MTB [4]
  Synergy with other anti-mycobacterial drugs: synergistic activity with EMB, the new diamine antitubercular SQ109, and streptomycin against MTB
MTB [4]; SQ641 + EMB
  ΣFIC: 0.156
MTB inside macrophages; 1 μg/ml
  Mean RLU at Day 7: 1208 RLU
MTB inside macrophages; 2 μg/ml
  Mean RLU at Day 7: 1162 RLU
MTB inside macrophages; 4 μg/ml
  Mean RLU at Day 7: 1116 RLU
MTB inside macrophages; 8 μg/ml
  Mean RLU at Day 7: 441 RLU
MTB inside macrophages; 16 μg/ml
  Mean RLU at Day 7: 253 RLU
MTB inside macrophages; 32 μg/ml
  Mean RLU at Day 7: 190 RLU
MTB inside macrophages; 1× and 2× MIC
  Intracellular activity (FIG. 1): showed intracellular activities
MTB in J774A.1 cells; SQ641 1 μg/ml + CsA10 (12 μg/ml), Day 0 RLU 811, Control Day 7 3004
  Mean RLU at Day 7: 342 RLU
MTB in J774A.1 cells; SQ641 1 μg/ml + VE10 (5 μg/ml), Day 0 RLU 425, Control Day 7 6283
  Mean RLU at Day 7: 686 RLU
MTB in J774A.1 cells; SQ641 1 μg/ml, Day 0 RLU 425, Control Day 7 6283
  Mean RLU at Day 7: 3866 RLU
MTB in J774A.1 cells; SQ641 1 μg/ml, Day 0 RLU 811, Control Day 7 3004
  Mean RLU at Day 7: 2233 RLU
MTB in J774A.1 cells; SQ641 2 μg/ml + CsA10 (12 μg/ml), Day 0 RLU 811, Control Day 7 3004
  Mean RLU at Day 7: 43 RLU
MTB in J774A.1 cells; SQ641 2 μg/ml + VE10 (5 μg/ml), Day 0 RLU 425, Control Day 7 6283
  Mean RLU at Day 7: 509 RLU
MTB in J774A.1 cells; SQ641 2 μg/ml, Day 0 RLU 425, Control Day 7 6283
  Mean RLU at Day 7: 2362 RLU
MTB in J774A.1 cells; SQ641 2 μg/ml, Day 0 RLU 811, Control Day 7 3004
  Mean RLU at Day 7: 1361 RLU
MTB in J774A.1 cells; SQ641 4 μg/ml + CsA10 (12 μg/ml), Day 0 RLU 811, Control Day 7 3004
  Mean RLU at Day 7: 28 RLU
MTB in J774A.1 cells; SQ641 4 μg/ml + VE10 (5 μg/ml), Day 0 RLU 425, Control Day 7 6283
  Mean RLU at Day 7: 368 RLU
MTB in J774A.1 cells; SQ641 4 μg/ml, Day 0 RLU 425, Control Day 7 6283
  Mean RLU at Day 7: 2329 RLU
MTB in J774A.1 cells; SQ641 4 μg/ml, Day 0 RLU 811, Control Day 7 3004
  Mean RLU at Day 7: 1476 RLU
MTB in J774A.1 cells; SQ641 8 μg/ml + CsA10 (12 μg/ml), Day 0 RLU 811, Control Day 7 3004
  Mean RLU at Day 7: 15 RLU
MTB in J774A.1 cells; SQ641 8 μg/ml + VE10 (5 μg/ml), Day 0 RLU 425, Control Day 7 6283
  Mean RLU at Day 7: 44 RLU
MTB in J774A.1 cells; SQ641 8 μg/ml, Day 0 RLU 425, Control Day 7 6283
  Mean RLU at Day 7: 1392 RLU
MTB in J774A.1 cells; SQ641 8 μg/ml, Day 0 RLU 811, Control Day 7 3004
  Mean RLU at Day 7: 850 RLU
MTB in J774A.1 cells; SQ641 16 μg/ml + CsA10 (12 μg/ml), Day 0 RLU 811, Control Day 7 3004
  Mean RLU at Day 7: 14 RLU
MTB in J774A.1 cells; SQ641 16 μg/ml + VE10 (5 μg/ml), Day 0 RLU 425, Control Day 7 6283
  Mean RLU at Day 7: 18 RLU
MTB in J774A.1 cells; SQ641 16 μg/ml, Day 0 RLU 425, Control Day 7 6283
  Mean RLU at Day 7: 654 RLU
MTB in J774A.1 cells; SQ641 16 μg/ml, Day 0 RLU 811, Control Day 7 3004
  Mean RLU at Day 7: 346 RLU
MTB in J774A.1 cells; SQ641 32 μg/ml + CsA10 (12 μg/ml), Day 0 RLU 811, Control Day 7 3004
  Mean RLU at Day 7: 11 RLU
MTB in J774A.1 cells; SQ641 32 μg/ml + VE10 (5 μg/ml), Day 0 RLU 425, Control Day 7 6283
  Mean RLU at Day 7: 12 RLU
MTB in J774A.1 cells; SQ641 32 μg/ml, Day 0 RLU 425, Control Day 7 6283
  Mean RLU at Day 7: 141 RLU
MTB in J774A.1 cells; SQ641 32 μg/ml, Day 0 RLU 811, Control Day 7 3004
  Mean RLU at Day 7: 113 RLU
MTB in macrophages
  RLU lower than the drug dissolved in DMSO: about 50%
MTB in macrophages; SQ641 2 μg/ml, day 0 RLU 1397, Control day 7 9075
  Mean RLU on day 7: 3535 RLU
MTB [5]
  Routes by which replication of MTB in lungs was prevented (vs early control): all but intranasal
[6]
  MIC90: 2 µg/mL (≈ 2.71 µM)
